Source: BindingDB's records for doi:10.1016/j.bmcl.2010.12.109 (Ono Pharmaceutical, 2011)
Where a name gives a salt, the structure may show the parent alone.

Test: Antagonist activity at human CCR5 expressed in HOS cells assessed as inhibition of cell fusion with HIV gp120 expressing HEK293 cells by LTR luciferase assay

With CCCCN1C(=O)[C@@H]([C@H](O)C(C)C)NC(=O)C12CCN(Cc1ccc(Oc3ccccc3)cc1)CC2 [(R)-1-butyl-3-((R)-1-hydroxy-2-methyl-propyl)-9-(4-phenoxy-benzyl)-1,4,9-triaza-spiro[5.5]undecane-2,5-dione hydrochloride] the IC50 was 0.229 µM.
CCCCN1C(=O)C(CC(C)C)NC(=O)C12CCN(Cc1ccc(Oc3ccccc3)cc1)CC2 (stereo not drawn) [rac-1-Butyl-3-isobutyl-9-(4-phenoxybenzyl)-1,4,9-triazaspiro[5.5]undecane-2,5-dione hydrochloride] showed an IC50 of 0.851 µM.
